“Also recorded” adds a separate entry of the source. Where two headings read alike, the source gives them in different places.
Assays:
α1 adrenergic receptors = settings: Schipper et al., 1991; cited from earlier work
[1] = test system: coloboma mutant (Cm) mice; experiment: Open-field locomotor activity, coloboma mutant mice; format: in vivo
From the text: (§1) Heterozygote coloboma mice were originally purchased from The Jackson Laboratory (Bar Harbor, Me.) and were bred and maintained in our colony. In the current study, mutant mice and wild-type littermates, all aged 8 to 10 weeks, were used. Animals were divided into 4 groups: mutant/drug-treatment, mutant/vehicle-control, wild-type/drug-treatment, wild-type/vehicle-control (n=4-13 per group). Age and gender were balanced among groups. All animals were housed as littermates (2-4 mice per cage) and were maintained on ad libitum food and water with a 12 hr light/dark cycle.
(§2) The Open-field (OF) test was performed under normal lighting conditions (400 lux). Mice (Cm/+, WT) were brought into the experimental room and allowed at least 1 hr of acclimation. […] Each mouse was then placed into an OF arena (27×27×20 cm) with an infrared beam array system (Med Associates, St. Albans, Vt.) that automatically monitored the animal's activity. Four animals of matching genotype and treatment were tested at one time. The test session lasted 40 min and animals were returned to the home cage at the end of the session. Test measures included locomotion (distance traveled in cm) and number of center entries (zone crossings).

5-HT1A receptors [2] = target: T1, 5-HT1A receptors (Homo sapiens, UniProt P08908); experiment: 5-HT1A receptor affinity (Schipper et al., 1991); format: binding; settings: for ΔpKi for 5-HT1A and D2 receptors: based on Ki values of Schipper et al.
T1 sequence (P08908 1-422): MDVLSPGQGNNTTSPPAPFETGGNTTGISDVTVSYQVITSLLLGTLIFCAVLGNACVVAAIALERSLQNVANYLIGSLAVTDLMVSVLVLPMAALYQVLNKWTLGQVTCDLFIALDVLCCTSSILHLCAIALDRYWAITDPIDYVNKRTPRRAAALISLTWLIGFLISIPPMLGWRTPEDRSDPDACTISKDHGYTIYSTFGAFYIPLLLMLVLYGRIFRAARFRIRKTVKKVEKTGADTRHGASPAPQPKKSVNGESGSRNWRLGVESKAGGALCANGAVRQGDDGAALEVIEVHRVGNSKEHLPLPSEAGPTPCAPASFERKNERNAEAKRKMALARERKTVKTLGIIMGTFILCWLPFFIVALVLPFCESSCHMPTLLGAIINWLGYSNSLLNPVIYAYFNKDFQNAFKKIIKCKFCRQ

D2 receptors = D2 receptors (Homo sapiens, UniProt P14416); settings: Koek et al., 1998; cited from earlier work
Sequence of D2 receptors (P14416 whole entry): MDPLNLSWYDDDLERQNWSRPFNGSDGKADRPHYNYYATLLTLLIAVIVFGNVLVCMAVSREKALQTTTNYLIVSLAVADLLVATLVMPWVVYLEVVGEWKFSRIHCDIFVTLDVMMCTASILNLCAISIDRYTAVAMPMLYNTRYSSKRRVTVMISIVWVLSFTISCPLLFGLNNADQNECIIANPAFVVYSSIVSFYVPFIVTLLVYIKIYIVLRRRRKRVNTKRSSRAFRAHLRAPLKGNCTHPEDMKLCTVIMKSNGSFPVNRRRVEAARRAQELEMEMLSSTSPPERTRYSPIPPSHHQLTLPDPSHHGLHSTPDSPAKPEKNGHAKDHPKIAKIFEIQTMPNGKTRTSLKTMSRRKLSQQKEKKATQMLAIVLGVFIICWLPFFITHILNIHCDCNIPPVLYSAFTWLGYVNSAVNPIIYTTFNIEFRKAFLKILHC

dopamine D2 receptors [3] = target: T2, dopamine D2 receptors (Homo sapiens, UniProt P14416); experiment: Dopamine D2 receptor affinity (Schipper et al., 1991); format: binding; settings: converted from Ki of Schipper et al., read-out: pKi for D2 receptors (converted)
T2 sequence (P14416 whole entry): as above

rats = rats trained to discriminate flesinoxan (0.5 mg/kg i.p.) from saline; cited from earlier work
5-HT1A receptors [4] = target: T1, 5-HT1A receptors; settings: Koek et al., 1998; cited from earlier work
dopamine D2 receptors [5] = target: T2, dopamine D2 receptors; settings: Schipper et al., 1991; cited from earlier work
5-HT1A receptors [6] = target: T1, 5-HT1A receptors; experiment: 5-HT1A receptor affinity (Koek et al., 1998); format: binding; settings: from pKi values of Koek et al.
mice (C57BL/6J; C3H) = experiment: Peak procedure (peak interval procedure, PIP); format: in vivo; settings: for effect on performance (relative response rate curve) in PIP 30 s task: C57BL/6J mice, vs saline
Method: The peak procedure is a behavioral model designed to assess an animal's ability to learn an appropriate time period in which to perform a task and a time period in which the animal will be rewarded if the task is performed. The model provides information concerning excitatory and inhibitory components of behavior, as subjects must respond to perform a task when appropriate and stop responding in an “empty trial” when time for reward has elapsed and the reward has not been delivered. The task is sensitive to conditions where there is a failure in inhibitory mechanisms, such as seems to be the case for ADHD (Pliszka et al., Biol. Psychiatry, 48:238-46, 2000).
In the peak procedure, mice are trained to work for food that is delivered at the same time in each trial, but withdrawn in some unreinforced trials. Typically, the response rate increases up to a maximum around the reinforcement time, and then decreases to a low toward the end of the trial. The shape of the response rate indicates whether the animal is sensitive to the time of reinforcement. To be able to perform well in this model, the animals need to be able to learn several tasks. First, the animal must make an association between a response (lever pressing, nose poking or key pecking) and the delivery of reward. Second, the animal must be able to perceive and remember time. Third, the animal must act on its remembered time by starting and then stopping or inhibiting the response. Fourth, the animal must be able to compare the elapsed time in the trials with its remembered time to reinforcement. In each trial the time clock is reset, and the animal must reset its internal “counter,” i.e., at the beginning of each trial animals should start “timing” the trial time from zero. The ability to perform this task depends on the animal's working memory. Starting the internal clock at the beginning of the trial requires that the animal pays attention to the trial start time, which could be in the form of a visual signal, or as reported herein, the introduction of a lever into the experimental chamber. […] Accuracy is measured by looking at the shape of the response function; therefore, if the response function is sharper and centered on the reinforcement time it supports a conclusion that attentional processes have been heightened.
All mice were food deprived to a target weight of 85-90% of their free-feeding weight before training began. Mice were fed approximately 10% of their body weight until they reached their target weight. On average, 1 week of food deprivation was sufficient to reach the target weight. During this time, all subjects were fed Bioserve 500 mg precision dustless pellets as their daily ration. They were exposed to Carnation™ evaporated milk in the home cage to avoid a possible neophobic reaction to the reinforcement. Subjects were given 1-week “vacations” every 4 to 6 weeks at which time they were allowed free access to food and a new free-feeding body weight baseline was recorded. Water was continuously available in the cage.
Once deprived, animals were trained to lever-press in an operant chamber using ultrasensitive levers. Sixteen mouse operant chambers (Med Associates, Georgia, Vt.) were configured identically with two retractable ultra-sensitive levers, stimulus lights, and a dipper for delivery of condensed milk. A house light was placed on the opposite wall from the levers. Each chamber was placed in isolation cubicle. A fan provided white masking noise and adequate air.
Training and testing consisted of 1-h daily sessions. Subjects started on a concurrent fixed ratio 1-fixed time 1 min (FR 1-FT 1) schedule of reinforcement in which the house light served as the discriminative stimulus. Food was delivered every 1 min but the delivery was immediate if the animal made a response. […] After no more than 1 week on this schedule, mice began training with a fixed-interval (FI) 10 s schedule in which all trials were separated by a 20 s, intertrial interval. […]

5-HT1A receptors [7] = target: T1, 5-HT1A receptors; settings: proportion of maximal inhibition of forskolin-stimulated cAMP relative to 5-HT; Koek et al., 1998; cited from earlier work
5-HT1B receptors = settings: Schipper et al., 1991; Boddeke et al., 1992; cited from earlier work
wild-type mice = experiment: Open-field locomotor activity, wild-type mice; format: in vivo
From the text: as §1, §2

5-HT1D receptors = settings: Schipper et al., 1991; cited from earlier work
5-HT1A receptors [8] = target: T1, 5-HT1A receptors; settings: Schipper et al., 1991; cited from earlier work
5-HT1B/1D receptor = settings: [3H]5-CT […] or 2 nM in cortex; exemplary protocol; read-out: Ki of reference compound, 5-HT1B/1D binding assay; cited from earlier work
[9] = target: other neurotransmitter receptors; settings: Schipper et al., 1991; cited from earlier work
Cm mutant mice = Cm mutant mice (methylphenidate: both control and Cm mutants); Hess et al., 1996; cited from earlier work
[10] = test system: other 5-HT receptor subtypes or other neurotransmitter receptors; settings: reported; cited from earlier work
[11] = C3H mice, 0.03 mg/kg, vs vehicle
[12] = C3H mice, 0.1 mg/kg, vs vehicle

## Cl.O=C(NCCN1CCN(c2cccc3c2OCC(CO)O3)CC1)c1ccc(F)cc1 (single isomer, unassigned; (+)) [flesinoxan, (+)(4-fluoro-N-[2-[4-[2-(hydroxymethyl)-1,4-benzodioxane-5-yl] 1-piperazinyl]ethyl]benzamide) HCl]
α1 adrenergic receptors
  Ki: 380 nM
[1]; Cm mutant mice, 0.3 mg/kg i.p.
  reduction in locomotor activity compared to vehicle-treated Cm mutants: more than 75%
[1]; Cm mutant mice, 0.3 mg/kg i.p. 30 min before 40 min open-field session, vehicle 6112±1621
  total ambulatory distance: 1462±411 centimeters
[1]; Cm mutant mice, 0.3 mg/kg i.p., overall effect not statistically significant (p=0.0683)
  frequency of zone crossings: decreased the frequency of zone crossings in Cm mutants to within the range of saline-treated wild-type mice
5-HT1A receptors [2]
  ΔpKi for 5-HT1A and D2 receptors: about 1.92
5-HT1A receptors [2]; converted from Ki of Schipper et al.
  Ki: 1.7 nM
D2 receptors
  pKi for D2 receptors: 7.05
Dopamine D2 receptors [3]
  Ki: 141 nM
rats
  generalization to stimuli of α1 adrenoceptor antagonist, α2 adrenoceptor agonist, dopamine receptor agonist or antagonists: did not generalize
5-HT1A receptors [4]
  pKi for 5-HT1A receptors: 8.91
Dopamine D2 receptors [5]
  Ki: 140 nM
5-HT1A receptors [6]
  ΔpKi for 5-HT1A and D2 receptors: 1.86
Mice (C57BL/6J; C3H); [11]
  effect on response curve in PIP 30 s: the peaks of the response curve is higher and the curves are sharper than vehicle
  effect on response curve in PIP 45 s: evident but less robust
Mice (C57BL/6J; C3H); [12]
  effect on performance curves in PIP 30 s and PIP 45 s: more comparable to saline curve
5-HT1A receptors [7]
  intrinsic activity at the 5-HT1A receptor: 0.93
5-HT1B receptors
  Ki: 810 nM
wild-type mice; 0.3 mg/kg i.p.
  locomotion (distance traveled or zones crossed): only marginally affected locomotion
5-HT1D receptors
  Ki: 160 nM
5-HT1A receptors [8]
  Ki: 1.7 nM

## NCCc1c[nH]c2ccc(C(N)=O)cc12 [5-CT, 5-carboxyamidotryptamine]
5-HT1B/1D receptor
  Ki: 0.7 to 1.1 nM

## CCCN(CCC)C1CCc2cccc(O)c2C1 (centres unmarked) [8-OH-DPAT, 8-hydroxy-2(di-n-propylamino)tetralin]
α1 adrenergic receptors
  Ki: 380 nM
[9]
  Ki: > 1000 nM
[1]; Cm mice, 0.1 mg/kg
  attenuation of total ambulatory distance compared to vehicle: ~50%
[1]; Cm mice, 0.1 mg/kg, p=0.030
  total frequency of zone crossings: significantly decreased
[1]; Cm mice, 0.1 mg/kg, vehicle 14702±2611, not statistically significant
  total ambulatory distance: 7813±2606 centimeters
[1]; Cm mice, lower doses 0.001 or 0.01 mg/kg, data not shown
  attenuation of Cm hyperactivity: no significant attenuation
5-HT1A receptors [2]
  ΔpKi for 5-HT1A and D2 receptors: 2.94
Mice (C57BL/6J; C3H); C3H mice, 0.01 mg/kg, vs vehicle, 0.01 mg/kg
  effect on performance curves in PIP 30 s and PIP 45 s: not significantly different from the saline curve; also recorded: slightly disruptive
Mice (C57BL/6J; C3H); [12]
  effect on performance curves in PIP 30 s and PIP 45 s: not significantly different from the saline curve
wild-type mice; 0.1 mg/kg, vehicle 7720±2726, non-significant
  total ambulatory distance: 4517±1599 centimeters
5-HT1D receptors
  Ki: 930 nM

## Cn1c(=O)cnn(CCCCN2CCN(c3ncccn3)CC2)c1=O [F11440, 4-methyl-2-(4-[4-(pyrimidin-2-yl)-piperazino]-butyl)-2H,4H-1,2,4-triazin-3,5-dione]
D2 receptors
  pKi for D2 receptors: 5.75
5-HT1A receptors [4]
  pKi for 5-HT1A receptors: 8.33
5-HT1A receptors [6]
  ΔpKi for 5-HT1A and D2 receptors: 2.58
5-HT1A receptors [7]
  intrinsic activity at the 5-HT1A receptor: 1.0

## CC(N)Cc1ccccc1 (centres unmarked) [amphetamine]
[1]; Cm mutant mice, 4 mg/kg i.p. 30 min before 40 min open-field session, saline 18386±6387
  total distance traveled: 5966±1938 cm
Cm mutant mice
  effect on hyperactivity / locomotor activity: normalizes the hyperactivity
Mice (C57BL/6J; C3H); 1 mg/kg
  effect on performance (relative response rate curve) in PIP 30 s task: positive effects
Mice (C57BL/6J; C3H); 2 mg/kg
  effect on performance (relative response rate curve) in PIP 30 s task: positive effects
Mice (C57BL/6J; C3H); 4 mg/kg
  effect on performance (relative response rate curve) in PIP 30 s task: disrupted performance
wild-type mice; 4 mg/kg i.p. 30 min before 40 min open-field session, saline 3116±338
  total distance traveled: 11657±2370 centimeters

## Clc1cnn(CCCCN2CCN(c3ncccn3)CC2)c1 [lesopitron, 2-[4-[4-(4-chloro-1H-pyrazol-1-yl)-butyl]-1-piperazinyl]pyrimidine]
[10]
  affinity for other 5-HT receptor subtypes or other neurotransmitter receptors: virtually no affinity
5-HT1A receptors [7]
  intrinsic activity at the 5-HT1A receptor: 0.70

Reference: patent publication US20050004105A1, “Treatment for a attention-deficit hyperactivity disorder” (priority 2003, published 2005)
